The test system of assay [1] is subcutaneous plasmacytoma derived from MM.1S cells. The assay is described as follows: First subcutaneous plasmacytoma model, NSG mice with human NK cells. The note with it: EDO-S101 30 mg/kg i.v. weekly, daratumumab 8 mg/kg i.p. weekly, 4 weeks; vehicle 30 days. It counts as in vivo. As to the method:
For the first subcutaneous human plasmacytoma model, NSG mice (Charles River Laboratories, Wilmington, MA, USA) were subcutaneously inoculated into the right flank with 3×10^6 MM1S in 100 μL RPMI 1640 medium and 100 μL of Matrigel (BD Biosciences). When tumors developed, mice were injected with human NK cells isolated from buffy coats from healthy donors and randomized (4 mice/group) to receive: EDO-S101 (30 mg/kg, iv weekly), daratumumab (8 mg/kg, ip weekly), a combination thereof, or vehicle (PBS vehicle solution with 15% HPBCD, 1.5% acetic acid, and 1.25% NaHCO3). Both, NK cells and the treatments were administered over four consecutive weeks. Caliper measurements of the tumor diameters were performed three times a week, and the tumor volume was estimated as the volume of a 3D ellipse using the following formula: V=4/3π×(a/2)×(b/2)^2, where “a” and “b” correspond to the longest and shortest diameter, respectively. Animals were killed when their tumors reached 2 cm. Differences in tumor volumes between control and treated groups were evaluated using one-way analysis of variance and Dunn's post-hoc tests. […]

Assay [2] concerns CD38 histone H3 acetylation. The assay is described as follows: ChIP-qPCR of CD38 histone H3 acetylation. The note with it: MM.1S (similar in RPMI-8226); 2.5 μM, 48 hours; vs DMSO. It counts as cell-based, human. As to the method: Chromatin Immunoprecipitation RPMI-8226 and MM.1S cell lines were treated with DMSO or tinostamustine (2.5 μM) for 48 hours. Then, the cells were fixed with Pierce™ fresh methanol-free formaldehyde (ThermoFisher) for 15 minutes and prepared for sonication with the truChIP Chromatin Shearing Kit (Covaris, Woburn, MA, USA), following the manufacturer's instructions and as previously described (Garcia-Gomez et al., Nat Commun 12: 421, 2021).
For ChIP-qPCR, samples were diluted 1/10, and 4 μL and specific primers (Supplementary Table 1) were used for each reaction. RT-qPCR was performed in technical triplicates for each biological replicate, using LightCycler® 480 SYBR Green Mix (Roche). The relative amount of immunoprecipitated DNA was compared to the input DNA for each condition.

Assay [3] concerns JJN3. The assay is described as follows: Percentage of viable MM cells after treatment. It counts as cell-based. The note with it: Homo sapiens, JJN-3, read-out: percentage of viable cells. As to the method:
(§1) Cell Treatment with EDO-S101 MM cells (MM1S, JJN3, KMS12-BM, RPMI-8226, U266, MOLP-8) were either treated with a control (0 μM EDO-S101, DMSO vehicle) or treated with EDO-S101 (0.1, 0.5, 1 or 2.5 μM in DMSO) for 48 hours, unless indicated otherwise.

For assay [4], the system named is MOLP-8. The assay is described as follows: Percentage of viable MM cells after treatment. The following applies: Homo sapiens, MOLP-8, read-out: percentage of viable cells. It counts as cell-based. How it is done:
as §1

The subject of assay [5] is MICB mRNA. The assay is described as follows: MICB mRNA by RT-qPCR in MM cell lines. It counts as cell-based, human. The note with it: all four MM cell lines except MOLP-8; 1 and 2.5 μM, 36 hours. How it is done: Real time quantitative PCR (RT-qPCR) Total RNA was isolated using the RNeasy Mini Kit (Qiagen, Hilden, Germany). Following reverse transcription, PCR was performed using TaqMan Gene Expression Assays (Applied Biosystems, Foster City, CA, USA): CD38 (Hs01120071_m1), MICA (Hs00741286_m1), MICB (Hs00792952_m1) and GAPDH (Hs99999905_m1). The results were expressed as fold change relative to expression of the target gene in control cells, using endogenous expression of GAPDH for normalization.

Assay [6] has as its system subcutaneous plasmacytoma derived from MM1.S cells. The assay is described as follows: Second subcutaneous plasmacytoma model, CB17-SCID mice. It counts as in vivo. The following applies: EDO-S101 30 mg/kg i.v. weekly, daratumumab 8 mg/kg i.p. weekly, 4 weeks; vehicle 34 days. The source says:
For the second subcutaneous human plasmacytoma model, CB17-SCID mice (The Jackson Laboratory) were used. CB17-SCID mice were randomised into groups (n=5). The design of the experiment (treatment doses and time schedule) was identical to the experiment described above with NSG mice except for the inoculation of NK cells, since CB17-SCID mice have their own functional NK cells.
For the second subcutaneous human plasmacytoma model, CB17-SCID mice (20 female mice, 5-6 weeks old; from The Jackson Laboratory) were used. The design of the experiment (treatment doses and time schedule) was identical to the one performed with NSG mice except for the inoculation of human NK cells, since CB17-SCID mice hold their own functional NK cells (Dorshkind et al., J Immunol 134:3798-3801, 1985).
In the second xenograft plasmacytoma model, CB17-SCID mice bearing a subcutaneous plasmacytoma derived from MM1.S cells were randomized to receive vehicle, daratumumab, EDO-S101 or the double combination. Mice were treated with EDO-S101 on Mondays and daratumumab was administered on Tuesdays. […] Furthermore, statistical differences in survival were also found between the combination vs vehicle (58 days±2.739 vs 34 days±2.191 days, respectively; p=0.003).

Take `Cn1c(CCCCCCC(=O)NO)nc2cc(N(CCCl)CCCl)ccc21` [EDO-S101, 7-(5-(bis(2-chloroethyl)amino)-1-methyl-1H-benzo[d]imidazol-2-yl)-N-hydroxyheptanamide]: the median survival in assay [1] is 48 days. The “CD38 histone H3 acetylation levels” value in assay [2] is recorded as “elevated”. In addition, the results for the viability at 2.5 µM in assay [3] and in assay [4] were 55.5% and 25.6%, respectively. Further, the “expression of MICB at the mRNA level” value in assay [5] is “increased”. For the same molecule, the overall median survival in assay [6] came out at 51 days.

These data come from patent publication US20240252472A1, “COMBINATIONS FOR TREATING CANCER” (Purdue Pharma L.P., priority 2023, published 2024).
